{
  "source": "patent US10144726B2",
  "about": "“Modulators of the p70S6 kinase for use in the treatment of brain disorders and triple-negative breast cancer” (SENTINEL ONCOLOGY LIMITED, priority 2015, dated 2018)",
  "key": {"[1]": {"target": "p70S6K (h) (Homo sapiens, UniProt P23443)", "sequence (P23443 whole entry)": "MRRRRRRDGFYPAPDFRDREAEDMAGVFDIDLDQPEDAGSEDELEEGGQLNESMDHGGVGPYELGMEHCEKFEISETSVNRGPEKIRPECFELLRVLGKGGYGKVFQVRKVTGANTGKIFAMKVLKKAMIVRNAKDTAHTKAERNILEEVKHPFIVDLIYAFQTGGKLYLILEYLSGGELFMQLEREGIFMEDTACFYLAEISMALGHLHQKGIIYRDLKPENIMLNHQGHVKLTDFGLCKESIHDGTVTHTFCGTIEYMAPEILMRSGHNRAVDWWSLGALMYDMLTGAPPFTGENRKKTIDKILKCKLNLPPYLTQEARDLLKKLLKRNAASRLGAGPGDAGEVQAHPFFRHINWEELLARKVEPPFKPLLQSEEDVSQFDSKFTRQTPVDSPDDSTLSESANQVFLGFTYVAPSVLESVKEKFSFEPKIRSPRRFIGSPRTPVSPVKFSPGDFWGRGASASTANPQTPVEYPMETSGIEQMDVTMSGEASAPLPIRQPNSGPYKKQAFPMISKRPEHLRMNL", "assay": "Determination of p70S6 inhibitory activity (radiometric kinase assay)", "type": "biochemical", "conditions": "read-out: (a) p70S6K1 IC50", "method": "The ability of compounds of the invention to inhibit P70S6 kinase was determined using the protocol below.\n20 mM MOPS, 1 mM EDTA, 0.01% Brij-35, 5% Glycerol, 0.1% b-mercaptoethanol, 1 mg/mL BSA\nIn a final reaction volume of 25 μL, p70S6K (h) (5-10 mU) is incubated with 8 mM MOPS pH 7.0, 0.2 mM EDTA, 100 μM KKRNRTLTV, 10 mM Mg acetate and [γ-33P-ATP] (specific activity approx. 500 cpm/pmol, concentration as required). The reaction is initiated by the addition of the MgATP mix. After incubation for 40 minutes at room temperature, the reaction is stopped by the addition of 5 μL of a 3% phosphoric acid solution. 10 μL of the reaction mixture is then spotted onto a P30 filtermat and washed three times for 5 minutes in 75 mM phosphoric acid and once in methanol prior to drying and scintillation counting."}, "[2]": {"tested_on": "MCF-7 cells", "assay": "MCF-7 proliferation assay (Alamar blue, 72 h)", "type": "cell-based", "conditions": "Homo sapiens, MCF7, 72 h; read-out: (c) MCF-7 proliferation IC50", "method": "The following assay was used to determine the ability of test compounds to inhibit cell growth.\nThe following protocol was used: • 1) MCF-7 cells were seeded in 96-well plates at 5000 cells per well and allowed to adhere overnight prior to addition of compound or vehicle control. • 2) Test compounds were prepared from 10 mM DMSO stocks to give a final concentration range of 100 μM, 30 μM, 10 μM, 3 μM, 1 μM, 0.3 μM, 0.1 μM, 0.03 μM, 0.01 μM and vehicle control. The DMSO content was constant at 1%. • 3) Test compounds were incubated with the cells for 72 h at 37° C. 5% CO2 in a humidified atmosphere. • 4) Alamar blue 10% (v/v) was then added and incubated for a further 6 h, and fluorescent product detected using the BMG FLUOstar plate reader. • 5) Data were analysed using a 4-parameter logistic equation in GraphPad Prism."}, "[3]": {"assay": "Brain and plasma concentrations in an in vivo cassette mouse model", "set-up": "species or system male CD-1 mice", "conditions": "male, PO cassette, 2.5 mg/kg per compound", "method": "The compounds of this invention were evaluated in an in vivo cassette mouse model to determine brain and plasma concentrations following oral dosing. This is an industry-standard and recognised means to assess brain penetration of small molecules (for recent literature article, refer to In vitro permeability analysis, pharmacokinetic and brain distribution study in mice of imperatorin, isoimperatorin and cnidilin in Radix Angelicae Dahuricae, Fitoterapia, Volume 85, March 2013 , Pages 144-153). It is also recognised that higher brain concentrations (and higher ratios of brain: plasma concentration) lead to greater exposure in the brain—this is clearly advantageous if the brain is the site of action.\nFor a single cassette study, male CD-1 mice were used (n=3 per timepoint, two timepoints: 1.0 hr and 3.0 hr).\n5 compounds were dosed PO per cassette (dose level 2.5 mg/kg per compound, dose conc. 0.25 mg/ml, dose volume 10.0 ml/kg).\nFormulation used to solubilize compounds: 10% DMSO/90% hydroxypropyl-β-cyclodextrin (20% w/v aqueous)\nSampling was terminal and plasma and brain matrices were generated. To prepare plasma samples, protein was precipitated using acetonitrile. To prepare brain samples, homogenisation and protein precipitation was performed with acetonitrile. Samples were analysed using HPLC-TOF MS using electrospray ionisation."}, "[4]": {"tested_on": "audiogenic seizures in FXS (Fmr1 KO) mice", "assay": "Audiogenic seizure assay, in vivo model of Fragile X Syndrome", "set-up": "species or system FVB background", "conditions": "25 mg/kg QD × 7 PO", "source_text": "Seizures occur in conjunction with FXS and autism in up to one-quarter of children with these disorders (Berry-Kravis E (2002) Epilepsy in fragile X syndrome. Dev. Med. Child Neurol. 44(11):724-728). […] The audiogenic seizure assay (AGS) is a well documented mouse model of FXS (Audiogenic seizures susceptibility in transgenic mice with fragile X syndrome, Epilepsia. 2000 January; 41(1):19-23). In such a model it is possible to dose compounds to observe effects on susceptibility of the mice to audiogenic seizures. The following AGS experiment was set up to test the efficacy of compounds of this application:\nStrain of FXS Mouse Used: FVB Background\nVehicle used: 10% DMSO/90% hydroxypropyl-β-cyclodextrin (20% w/v aqueous)\nAnimals were assessed in AGS following 7 consecutive days of dosing.\nThe experimental chamber consisted of a plastic cage of dimensions 25×25×47 cm in which a doorbell (Electrical bell Heath Zenith, model 172C-A) had been mounted on the cage roof.\nMice were taken from their housing room one by one and transferred into the experimental chamber and allowed to explore the novel environment (basal noise ˜65 dB) for a period of 30 seconds after which point the bell was rung (124 dB).\nThe resulting motor responses were classified using a scale modified from the one originally described by Jobe et al. (1973): no response (NR: pause or continuous exploration), wild running (WR), clonic seizure (CS), tonic seizure (TS), respiratory arrest and/or death (RA). In order to define the intensity of the behavioral response a seizure severity score was used (SSS) (Musumeci et al., 2000), consisting of a score assigned to each animal depending on its behavioral response (NR=0, WR=1, CS=2, TS=3, RA=4). To determine the SSS for a treatment group the scores of the individual mice are summed. The motor response rate is defined as the percentage of animals per group responding to the stimulus."}},
  "note": "Where two headings read alike, the source gives them in different places.",
  "data": [
    {"smiles": "C[C@@H](Nc1cnc2cc(-c3cn[nH]c3)ccc2n1)c1cccc(Cl)c1", "note": "[Example 15]", "values": [
      {"measurement": "IC50", "setting": "[1]", "value": 0.006, "unit": "µM"},
      {"measurement": "IC50", "setting": "[2]", "value": 12, "unit": "µM"},
      {"measurement": "concentration at 3 h", "setting": "[3]; CD-1, brain, read-out: (d) Brain conc. at 3 hours", "value": 2430, "unit": "nM"},
      {"measurement": "Kp at 3 h", "setting": "[3]; CD-1, brain, read-out: (d) Brain: Plasma ratio at 3 hours", "value": 2},
      {"measurement": "concentration at 3 h", "setting": "[3]; CD-1, plasma, read-out: (d) Plasma conc. at 3 hours", "value": 1190, "unit": "nM"},
      {"measurement": "CS (clonic seizure), number of animals", "setting": "[4]", "value": 0},
      {"measurement": "NR (no response), number of animals", "setting": "[4]", "value": 6},
      {"measurement": "RA (respiratory arrest and/or death), number of animals", "setting": "[4]", "value": 0},
      {"measurement": "SSS (seizure severity score, summed for the group)", "setting": "[4]", "value": 2},
      {"measurement": "TS (tonic seizure), number of animals", "setting": "[4]", "value": 0},
      {"measurement": "WR (wild running), number of animals", "setting": "[4]", "value": 2},
      {"measurement": "Incidence of audiogenic seizures and severity of response", "setting": "[4]; vs vehicle, p<0.01 by Fisher's test", "value": "reduced"}
    ]}
  ]
}
